Results on 2 molecules are retold here after US11814356B1, “Salt of cabozantinib” (Apotex Inc., priority 2023, dated 2023).

The conditions of data set [1]: pH-dependent; at a pH>3; cited from earlier work.
For data set [2] the following is noted: cited from earlier work.
Data set [3] can be described thus: PXRD form stability of uncapped samples in a stability chamber. The format is physicochemical. As for the experimental part:
Cabozantinib acesulfamate Form APO-I can be characterized by a PXRD diffractogram comprising, among other peaks, characteristic peaks, expressed in degrees 2θ (±0.2°), at 9.5°, 11.2° and 19.7°. Preferably, the PXRD diffractogram further comprises at least three peaks, expressed in degrees 2θ (±0.2°), selected from the group consisting of 9.1°, 10.2°, 12.7°, 15.9°, 17.4°, and 18.1°. More preferably, the PXRD diffractogram further comprises peaks, expressed in degrees 2θ (±0.2°), at 9.1°, 10.2°, 12.7°, 15.9°, 17.4°, and 18.1°.
PXRD diffractograms were recorded on a Bruker D8 Discover powder X-ray diffractometer (Bruker AXS LLC, Karlsruhe, Germany). The sample holder was oscillated along x and y axes during the measurement. The generator was a Incoatec Microfocus Source (IμS) Cu tube (λ=1.54060 Å) with a voltage of 50 kV and current of 1.00 mA, using a divergence slit of 0.1 mm and collimator of 2.0 mm. For each sample, one frame was collected using a still scan with a PILATUS3 R 100K-A detector at the distance of 294.2 mm from the sample. Raw data were evaluated using the program DIFFRAC.EVA (Bruker AXS LLC, Karlsruhe, Germany).

Structures are written as SMILES.

With `COc1cc2nccc(Oc3ccc(NC(=O)C4(C(=O)Nc5ccc(F)cc5)CC4)cc3)c2cc1OC` [cabozantinib, N-(4-(6,7-dimethoxyquinolin-4-yloxy)phenyl)-N′-(4-fluorophenyl)cyclopropane-1,1-dicarboxamide], the aqueous solubility result in data set [1] is given as “very low solubility”. Also, the permeability result in data set [2] is recorded as “high permeability”.
For the molecule `CC1=CC(=O)NS(=O)(=O)O1.COc1cc2nccc(Oc3ccc(NC(=O)C4(C(=O)Nc5ccc(F)cc5)CC4)cc3)c2cc1OC` [cabozantinib acesulfamate Form APO-I, Cabozantinib Acesulfamate Form APO-I], the form stability entry in data set [3] (high temperature and high humidity) was “form stability”. Besides, the “change in the crystalline form (PXRD)” value in data set [3] (uncapped samples, 40° C./75% RH stability chamber, at least 4 weeks) is on record as “no change in the crystalline form occurred”.
